# From patent EP4745134A1 (Jiangsu Yahong Meditech Co., Ltd., priority 2023, dated 2025)
# Target: PRMT5-MTA (Homo sapiens, UniProt O14744)
# Test: Enzymatic inhibitory activity against PRMT5-MTA (AlphaScreen)
# Format: biochemical
# Conditions: read-out: IC50
# Method: The AlphaScreen method was used to detect the enzymatic inhibitory activity of the compounds against PRMT5-MTA. 1 x Methyltransferase assay buffer IV (signalchem) was prepared as a solution for diluting each component for the enzymatic reaction. PRMT5/[…] protein of a final concentration of 1 nM, […] (sigma) of a final concentration of 1 uM and S-(5'-adenosine)-L-methionine chloride dihydrochloride (sigma) of a final concentration of 2.5 uM were mixed, then incubated for 30 minutes at room temperature, and transferred to an OptiPlate-384 well plate (PerkinElmer) at a volume of 6 uL per well, for which no PRMT5/[…] protein was added to the control wells. The test compound was 3-fold serially diluted into 10 concentrations, starting from a concentration of 1000 nM, and the series of diluted compounds were added to all wells except the control wells in the well plate using Tecan D300e. The well plate was subjected to centrifugation for 1 minute at 1000 rpm in a centrifuge, and then incubated for 15 minutes at 23°C. Histone H4 substrate of a final concentration of 5 nM was added to the well plate at 4 uL per well, centrifuged for 1 minute at 1000 rpm in a centrifuge, then placed in an incubator at 23°C and reacted for 45 minutes. Anti-histone H4 (symmetrical dimethyl R3) antibody (Abcam) was incubated with 50 ug/mL of AlphaScreen Protein A Acceptor beads (PerkinElmer) for 10 minutes at room temperature beforehand, and then added to the well plate at a volume of 10 uL per well. The mixture was reacted for 1 hour at room temperature. 50 Ug/mL of AlphaScreen Streptavidin Donor beads (PerkinElmer) was added at 10 uL per well, and reacted for 1 hour at room temperature. The signal values were detected for the well plate through the Alpha method using an Envision multifunctional microplate-reader, and the IC50 values for inhibition of the compounds on PRMT5/MET50 enzyme activity were calculated in Xlfit 5.0 software. Table 1. IC50 values for inhibition of the compounds on PRMT5+MTA enzyme activity
# Chain of PRMT5-MTA (O14744 whole entry): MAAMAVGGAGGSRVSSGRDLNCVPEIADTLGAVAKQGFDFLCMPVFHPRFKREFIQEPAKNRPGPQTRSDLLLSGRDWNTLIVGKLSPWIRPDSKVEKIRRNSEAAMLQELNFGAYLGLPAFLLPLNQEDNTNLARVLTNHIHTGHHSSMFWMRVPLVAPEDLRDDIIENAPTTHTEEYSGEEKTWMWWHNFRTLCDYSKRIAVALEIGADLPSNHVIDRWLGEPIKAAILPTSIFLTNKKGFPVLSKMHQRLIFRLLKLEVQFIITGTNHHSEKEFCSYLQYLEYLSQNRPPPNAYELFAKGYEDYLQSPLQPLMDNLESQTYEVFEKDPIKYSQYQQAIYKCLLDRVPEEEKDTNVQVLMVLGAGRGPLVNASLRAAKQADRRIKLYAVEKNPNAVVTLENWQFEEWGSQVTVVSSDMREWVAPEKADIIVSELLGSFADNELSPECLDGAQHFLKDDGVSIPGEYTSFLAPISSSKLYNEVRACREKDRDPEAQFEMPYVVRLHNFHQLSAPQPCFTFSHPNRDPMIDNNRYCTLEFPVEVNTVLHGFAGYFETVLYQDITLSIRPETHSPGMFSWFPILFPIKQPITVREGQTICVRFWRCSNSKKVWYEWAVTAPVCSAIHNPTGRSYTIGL
# Chain of PRMT5-MTA (Q9BQA1 whole entry partner): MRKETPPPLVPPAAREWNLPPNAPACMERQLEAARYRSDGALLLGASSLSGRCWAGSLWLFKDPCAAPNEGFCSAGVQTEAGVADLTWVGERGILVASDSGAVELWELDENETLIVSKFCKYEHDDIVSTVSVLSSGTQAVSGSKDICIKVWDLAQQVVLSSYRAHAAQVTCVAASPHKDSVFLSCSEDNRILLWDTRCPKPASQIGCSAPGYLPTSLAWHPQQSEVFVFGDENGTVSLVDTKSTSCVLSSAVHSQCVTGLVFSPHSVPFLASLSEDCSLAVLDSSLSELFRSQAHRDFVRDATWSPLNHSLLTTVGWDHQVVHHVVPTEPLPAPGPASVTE
row,SMILES,IC50
1,"COc1cc2cc(C(=O)N(Cc3ccc(C(F)(F)F)cn3)N(C)c3ncccn3)ccc2nc1N [Example 319, 2-amino-3-methoxy-N'-methyl-N'-(pyrimidin-2-yl)-N-((5-(trifluoromethyl)pyridin-2-yl)methyl)quinoline-6-carbohydrazide]",4.7 nM
2,"Nc1nc2ccc(C(=O)N(Cc3ccc(C(F)(F)F)cn3)N(c3ncccn3)C3CC3)cc2cc1CF [Example 323, 2-amino-N'-cyclopropyl-3-(fluoromethyl)-N'-(pyrimidin-2-yl)-N-((5-(trifluoromethyl)pyridin-2-yl)methyl)quinoline-6-carbohydrazide]",7.1 nM
3,"COCc1cc2cc(C(=O)N(Cc3ccc(C(F)(F)F)cn3)N(C)c3ncccn3)ccc2nc1N [Example 326, 2-amino-3-(methoxymethyl)-N'-methyl-N'-(pyrimidin-2-yl)-N-((5-(trifluoromethyl)pyridin-2-yl)methyl)quinoline-6-carbohydrazide]",2 nM
4,"CN(c1ncccn1)N(Cc1ccc(C(F)(F)F)cn1)C(=O)c1ccc2nc(N)c(C(F)(F)F)cc2c1 [Example 327, 2-amino-N'-methyl-N'-(pyrimidin-2-yl)-3-(trifluoromethyl)-N-((5-(trifluoromethyl)pyridin-2-yl)methyl)quinoline-6-carbohydrazide]",8.4 nM
5,"Cc1cc2nc(N)c3cnn(C)c3c2cc1C(=O)N1CCCN1c1nccc2nccnc12 [Example 331, (4-amino-1,7-dimethyl-1H-pyrazolo[4,3-c]quinolin-8-yl)(2-(pyrido[3,4-b]pyrazin-5-yl)pyrazolidin-1-yl)methanone]",2.1 nM
6,"Cc1cc2cc(C(=O)N3CC(C)CN3c3ncccc3F)c(F)cc2nc1N (centres unmarked) [Example 333, (2-amino-7-fluoro-3-methylquinolin-6-yl)(2-(3-fluoropyridin-2-yl)-4-methylpyrazolidin-1-yl)methanone]",7.7 nM
7,"Cc1cc2nc(N)c3cnn(C)c3c2cc1C(=O)N1CC(C)CN1c1ncccc1OC(F)(F)F (centres unmarked) [Example 334, (4-amino-1,7-dimethyl-1H-pyrazolo[4,3-c]quinolin-8-yl)(4-methyl-2-(3-(trifluoromethoxy)pyridin-2-yl)pyrazolidin-1-yl)m ethanone]",9.2 nM
8,"Cc1cc2nc(N)c3cnn(C)c3c2cc1C(=O)N1CCCN1c1ccncc1 [Example 336, (4-amino-1,7-dimethyl-1H-pyrazolo[4,3-c]quinolin-8-yl)(2-(pyridin-4-yl)pyrazolidin-1-yl)methanone]",2.9 nM
9,"Cc1cc2cc(C(=O)N3CCCN3c3ccc(C(F)(F)F)cn3)ccc2nc1N [Example 337, (2-amino-3-methylquinolin-6-yl)(2-(5-(trifluoromethyl)pyridin-2-yl)pyrazolidin-1-yl)methanone]",59 nM
10,"Cn1ncc2c(N)nc3ccc(C(=O)N4CCCN4c4ccc(C(F)(F)F)cn4)cc3c21 [Example 339, (4-amino-1-methyl-1H-pyrazolo[4,3-c]quinolin-8-yl)(2-(5-(trifluoromethyl)pyridin-2-yl)pyrazolidin-1-yl)methanone]",4.6 nM
11,"Cc1cc2nc(N)c3cnn(C)c3c2cc1C(=O)N1CC(O)CN1c1ncccc1F (centres unmarked) [Example 356, (4-amino-1,7-dimethyl-1H-pyrazolo[4,3-c]quinolin-8-yl)(2-(3-fluoropyridin-2-yl)-4-hydroxypyrazolidin-1-yl)methanone]",3.7 nM
12,"Cc1cc2nc(N)c3cnn(C)c3c2cc1C(=O)N1CC(C)CN1c1cccc(F)c1F (centres unmarked) [Example 363, (4-amino-1,7-dimethyl-1H-pyrazolo[4,3-c]quinolin-8-yl)(2-(2,3-difluorophenyl)-4-methylpyrazolidin-1-yl)methanone]",3.1 nM

# Other lines, results leading:
row,IC50,SMILES
1,5.5 nM,"Cc1cc2nc(N)c3cnn(C)c3c2cc1C(=O)N1CC(C)CN1c1ncc(C#N)cc1F (centres unmarked) [Example 371, 6-(2-(4-amino-1,7-dimethyl-1H-pyrazolo [4,3-c]quinoline-8-formyl)-4-methylpyrazolidin-1-yl)-5-fluoronicotinonitrile]"
2,7.5 nM,"Cc1cc2nc(N)c3cnn(C)c3c2cc1C(=O)N1C(C)CCN1c1ncccn1 (centres unmarked) [Example 373, (4-amino-1,7-dimethyl-1H-pyrazolo[4,3-c]quinolin-8-yl)(5-methyl-2-(pyrimidin-2-yl)pyrazolidin-1-yl)methanone]"
3,3.4 nM,"Cc1cc2nc(N)c3cnn(C)c3c2cc1C(=O)N1CC(C)CN1c1ncccc1C (centres unmarked) [Example 380, (4-amino-1,7-dimethyl-1H-pyrazolo[4,3-c]quinolin-8-yl)(4-methyl-2-(3-methylpyridin-2-yl)pyrazolidin-1-yl)methanone]"
4,6.3 nM,"Cc1cc2nc(N)c3cnn(C)c3c2cc1C(=O)N1CC(C)CN1c1ccc(C(F)(F)F)cn1 (centres unmarked) [Example 389, (4-amino-1,7-dimethyl-1H-pyrazolo[4,3-c]quinolin-8-yl)(4-methyl-2-(5-(trifluoromethyl)pyridin-2-yl)pyrazolidin-1-yl)met hanone]"
5,6.2 nM,"Cc1cc2nc(N)c3cnn(C)c3c2cc1C(=O)N1CC(C)CN1c1ncccc1C(F)(F)F (centres unmarked) [Example 399, (4-amino-1,7-dimethyl-1H-pyrazolo[4,3-c]quinolin-8-yl)(4-methyl-2-(3-(trifluoromethyl)pyridin-2-yl)pyrazolidin-1-yl)met hanone]"
6,3.1 nM,"Cc1cc2nc(N)c3cnn(C)c3c2cc1C(=O)N1CC(c2ccccc2)CN1c1ncccc1F (centres unmarked) [Example 409, (4-amino-1,7-dimethyl-1H-pyrazolo[4,3-c]quinolin-8-yl)(2-(3-fluoropyridin-2-yl)-4-phenylpyrazolidin-1-yl)methanone]"
7,3.7 nM,"COC1CN(C(=O)c2cc3c(cc2Cl)nc(N)c2cnn(C)c23)N(c2cc(F)ccc2F)C1 (centres unmarked) [Example 440, (4-amino-7-chloro-1-methyl-1H-pyrazolo [4,3-c]quinolin-8-yl)(2-(2,5-difluorophenyl)-4-methoxypyrazolidin-1-yl)methanone]"
8,1.3 nM,"Cc1cc2nc(N)c3cnn(C)c3c2cc1C(=O)N1CCC(=O)N1c1ccc(C(F)(F)F)cn1 [Example 463, 1-(4-amino-1,7-dimethyl-1H-pyrazolo[4,3-c]quinoline-8-carbonyl)-2-(5-(trifluoromethyl)pyridin-2-yl)pyrazolidin-3-one]"
9,3.4 nM,"CCc1cc2nc(N)c3cnn(C)c3c2cc1C(=O)N1CCCN1c1ccc(C(F)(F)F)cn1 [Example 496, (4-amino-7-ethyl-1-methyl-1H-pyrazolo[4,3-c]quinolin-8-yl)(2-(5-(trifluoromethyl)pyridin-2-yl)pyrazolidin-1-yl)methanone]"
10,5.1 nM,"Cn1ncc2c(N)nc3cc(C4CC4)c(C(=O)N4CCCN4c4ccc(C(F)(F)F)cn4)cc3c21 [Example 497, (4-amino-7-cyclopropyl-1-methyl-1H-pyr azolo[4,3-c]quinolin-8-yl)(2-(5-(trifluoromethyl)pyridin-2-yl)pyrazolidin-1-yl)met hanone]"
11,5 nM,"COc1cc2nc(N)c3cnn(C)c3c2cc1C(=O)N1CCCN1c1ncccc1F [Example 498, (4-amino-7-methoxy-1-methyl-1H-pyraz olo[4,3-c]quinolin-8-yl)(2-(3-fluoropyridin-2-yl)pyrazolidin-1-yl)methanone]"
12,41 nM,"CC(C)c1cc2nc(N)c3cnn(C)c3c2cc1C(=O)N1CCCN1c1ccc(C(F)(F)F)cn1 [Example 500, (4-amino-7-isopropyl-1-methyl-1H-pyraz olo[4,3-c]quinolin-8-yl)(2-(5-(trifluoromethyl)pyridin-2-yl)pyrazolidin-1-yl)metha none]"
13,4.4 nM,"Cc1cc2nc(N)c3c(cnn3C)c2cc1C(=O)N1CCCN1c1ncccc1F [Example 501, (4-amino-3,7-dimethyl-3H-pyrazolo[3,4-c]quinolin-8-yl)(2-(3-fluoropyridin-2-yl)pyrazolidin-1-yl)methanone]"
14,5.2 nM,"CCn1ncc2c(N)nc3cc(C)c(C(=O)N4CC(C)CN4c4ncccc4F)cc3c21 (centres unmarked) [Example 503, (4-amino-1-ethyl-7-methyl-1H-pyrazolo[4,3-c]quinolin-8-yl)(2-(3-fluoropyridin-2-yl)-4-methylpyrazolidin-1-yl)methanone]"
15,8.6 nM,"Cc1cc2nc(N)c3c(cnn3C)c2cc1C(=O)N1CC(C)CN1c1ncccc1F (centres unmarked) [Example 504, (4-amino-3,7-dimethyl-3H-pyrazolo[3,4-c]quinolin-8-yl)(2-(3-fluoropyridin-2-yl)-4-methylpyrazolidin-1-yl)methanone]"
16,3 nM,"Cn1ncc2c(N)nc3cc(C(F)(F)F)c(C(=O)N4CCCN4c4ccc(C(F)(F)F)cn4)cc3c21 [Example 505, (4-amino-1-methyl-7-trifluoromethyl-1H-pyrazolo[4,3-c]quinolin-8-yl)(2-(5-(trifluoromethyl)pyridin-2-yl)pyrazolidin-1-yl) methanone]"
17,5.8 nM,"Cc1cc2nc(N)c3cnccc3c2cc1C(=O)N1CC(C)CN1c1ncccc1F (centres unmarked) [Example 506, (5-amino-8-methylbenzo[C] [2,7]naphthyridin-9-yl)(2-(3-fluoropyridin-2-yl)-4-methylpyrazolidin-1-yl)methanone]"
